Source: US6511963B1 (priority 1992, dated 2003)
Read-outs that look alike come from different tables or passages of the source. Square brackets hold non-standard residues; d marks the D form. Primed or numbered codes have the meaning given here. Ends that are not written are not given here. Peptide text beside a SMILES is read from it. Gla′ = gamma-carboxyglutamate (g in names)

Experiments:
NMDA receptor [1] = target: T1, NMDA receptor (Rattus norvegicus, UniProt P35439+Q00960); experiment: biochemical; assay type: binding; details: for Emax: read-out: % Sti
T1 construct: other: test compound in the absence of spermine; concentration at 50% of maximum stimulation; % Sti; spermine = 100; other: with and without spermine; absence of spermine; % STI; absence

NMDA receptor [2] = assay type: binding, rat
[3] = read-out: IC50, inhibition of spermine-enhanced [3H]MK-801 binding

T1 sequence (Q00960 27-1482, other chains not shown): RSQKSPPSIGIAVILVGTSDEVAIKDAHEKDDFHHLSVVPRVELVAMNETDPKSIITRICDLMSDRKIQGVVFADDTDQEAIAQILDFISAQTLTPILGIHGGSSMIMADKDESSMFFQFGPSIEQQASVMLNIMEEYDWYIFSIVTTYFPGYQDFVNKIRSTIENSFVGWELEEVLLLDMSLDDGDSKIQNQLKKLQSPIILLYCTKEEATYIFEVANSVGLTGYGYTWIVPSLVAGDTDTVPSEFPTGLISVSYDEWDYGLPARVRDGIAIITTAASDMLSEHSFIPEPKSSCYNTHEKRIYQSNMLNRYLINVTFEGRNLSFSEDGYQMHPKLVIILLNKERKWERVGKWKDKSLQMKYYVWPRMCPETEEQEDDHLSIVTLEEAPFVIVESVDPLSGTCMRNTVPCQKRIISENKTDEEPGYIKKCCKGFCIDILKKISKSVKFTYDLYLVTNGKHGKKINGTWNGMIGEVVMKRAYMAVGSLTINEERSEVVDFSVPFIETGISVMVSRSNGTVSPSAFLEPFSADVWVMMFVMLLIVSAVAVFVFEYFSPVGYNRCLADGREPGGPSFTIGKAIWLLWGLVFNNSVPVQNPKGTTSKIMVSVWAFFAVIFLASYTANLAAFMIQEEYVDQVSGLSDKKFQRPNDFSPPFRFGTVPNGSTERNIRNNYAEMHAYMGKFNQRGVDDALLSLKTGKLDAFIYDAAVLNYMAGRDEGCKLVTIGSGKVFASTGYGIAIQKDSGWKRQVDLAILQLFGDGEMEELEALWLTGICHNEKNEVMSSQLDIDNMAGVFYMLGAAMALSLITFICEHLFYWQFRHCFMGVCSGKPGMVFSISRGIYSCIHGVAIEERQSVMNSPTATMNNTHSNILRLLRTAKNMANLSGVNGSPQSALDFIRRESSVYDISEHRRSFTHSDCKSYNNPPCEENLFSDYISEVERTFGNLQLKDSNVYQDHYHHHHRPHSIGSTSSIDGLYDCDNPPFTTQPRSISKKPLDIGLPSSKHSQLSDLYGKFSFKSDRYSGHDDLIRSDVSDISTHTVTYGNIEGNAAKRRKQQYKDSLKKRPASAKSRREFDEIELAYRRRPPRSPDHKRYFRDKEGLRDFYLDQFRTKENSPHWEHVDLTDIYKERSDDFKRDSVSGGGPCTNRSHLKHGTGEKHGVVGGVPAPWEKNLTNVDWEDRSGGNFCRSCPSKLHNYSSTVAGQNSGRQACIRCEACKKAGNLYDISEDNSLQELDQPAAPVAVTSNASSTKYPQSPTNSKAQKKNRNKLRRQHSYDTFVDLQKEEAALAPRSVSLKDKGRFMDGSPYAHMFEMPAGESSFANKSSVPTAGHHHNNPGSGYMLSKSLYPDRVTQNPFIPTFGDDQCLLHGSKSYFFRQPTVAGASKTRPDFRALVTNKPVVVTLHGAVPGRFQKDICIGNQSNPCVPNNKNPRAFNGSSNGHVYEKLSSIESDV

Molecule: GEggL-BB-gKSN [ConG(1-5)BB(14-17)]
- % Sti (NMDA receptor [1]): 0%

Molecule: GEggL-AA-gKSN (GEXXLAAXKSN; gamma-carboxyglutamate residues) [ConG(1-5)AA(14-17)]
- % Sti (NMDA receptor [1]): 0%

Molecule: CC[C@H](C)[C@H](NC(=O)[C@H](CC(C)C)NC(=O)[C@H](CC(C(=O)O)C(=O)O)NC(=O)[C@H](CCC(N)=O)NC(=O)[C@H](CC(N)=O)NC(=O)[C@H](CC(C(=O)O)C(=O)O)NC(=O)[C@H](CCC(N)=O)NC(=O)[C@H](CC(C)C)NC(=O)[C@H](CC(C(=O)O)C(=O)O)NC(=O)[C@H](COP(=O)(O)O)NC(=O)[C@H](CCC(=O)O)NC(=O)CN)C(=O)N[C@@H](CCCNC(=N)N)C(=O)N[C@@H](CC(C(=O)O)C(=O)O)C(=O)N[C@@H](CCCCN)C(=O)N[C@@H](CO)C(=O)N[C@@H](CC(N)=O)C(N)=O [Ser(p)3-Con-G, GES(p)gLQgNQgLJRgKSN]
- % STI (NMDA receptor [1]; forebrain membranes): 68 ± 8.4%
- % Sti (NMDA receptor [1]; forebrain membranes): 68 ± 8.4%
- % INH (NMDA receptor [2]): 34 ± 2.3%
- % Inh (NMDA receptor [2]): 34 ± 2.3%

Molecule: CC[C@H](C)[C@H](NC(=O)[C@H](CC(C)C)NC(=O)[C@H](CC(C(=O)O)C(=O)O)NC(=O)[C@H](CCC(N)=O)NC(=O)[C@H](CC(N)=O)NC(=O)[C@H](Cc1cc(I)c(O)c(I)c1)NC(=O)[C@H](CCC(N)=O)NC(=O)[C@H](CC(C)C)NC(=O)[C@H](CC(C(=O)O)C(=O)O)NC(=O)[C@H](CC(C(=O)O)C(=O)O)NC(=O)[C@H](CCC(=O)O)NC(=O)CN)C(=O)N[C@@H](CCCNC(=N)N)C(=O)N[C@@H](CC(C(=O)O)C(=O)O)C(=O)N[C@@H](CCCCN)C(=O)N[C@@H](CO)C(=O)N[C@@H](CC(N)=O)C(N)=O [di-iodo-Tyr7-Con-G, GEggLQY(JI)NQgLIRgKSN]
- Emax (NMDA receptor [1]): 0%
- % Inh (NMDA receptor [2]): 100%
- IC50 (NMDA receptor [2]; read-out: Spermine IC): 500 nM

Molecule: GEgELQgNQgLJRgKSN (GEXELQXNQXLIRXKSN; gamma-carboxyglutamate residues) [Glu4-Con-G]
- % Sti (NMDA receptor [1]): 0%
- % Inh (NMDA receptor [2]): 0%

Molecule: GEggLQ-AAAAA-gKSN (GE[Gla′][Gla′]LQAAAAA[Gla′]KSN) [ConG(1-6)AS(14-17)]
- % Sti (NMDA receptor [1]): 0%

Molecule: RSgNK (RS[Gla′]NK) [scrambled Con-G]
- activity in [3H]MK-801 binding (spanning cell of Table II) (NMDA receptor [1]): inactive

Molecule: NCCCNCCCCNCCCN [Spermine, reference compound]
- % Sti (NMDA receptor [1]; forebrain membranes): 100%
- % Inh (NMDA receptor [2]): 0%

Molecule: CC[C@H](C)[C@H](N)C(=O)N[C@@H](CCCNC(=N)N)C(=O)N[C@@H](CCC(=O)O)C(=O)N[C@@H](CCCCN)C(=O)N[C@@H](CO)C(=O)N[C@@H](CC(N)=O)C(N)=O [Glul4-Con-G(12-17), IREKSN]
- stimulation of [3H]MK-801 binding in the absence of spermine (NMDA receptor [1]): stimulated
- Emax (NMDA receptor [1]): 30%
- % Inh (NMDA receptor [2]): 0%
- inhibition of spermine-induced [3H]MK-801 binding (NMDA receptor [2]): no inhibition

Molecule: CC[C@H](C)[C@H](NC(=O)[C@H](CC(C)C)NC(=O)[C@H](C)NC(=O)[C@H](CCC(N)=O)NC(=O)[C@H](CC(N)=O)NC(=O)[C@H](CC(C(=O)O)C(=O)O)NC(=O)[C@H](CCC(N)=O)NC(=O)[C@H](CC(C)C)NC(=O)[C@H](CC(C(=O)O)C(=O)O)NC(=O)[C@H](CC(C(=O)O)C(=O)O)NC(=O)[C@H](CCC(=O)O)NC(=O)CN)C(=O)N[C@@H](CCCNC(=N)N)C(=O)N[C@@H](CC(C(=O)O)C(=O)O)C(=O)N[C@@H](CCCCN)C(=O)N[C@@H](CO)C(=O)N[C@@H](CC(N)=O)C(N)=O [Ala10-Con-G, GEggLQgNQALIRgKSN]
- Emax (NMDA receptor [1]): 0%
- % Inh (NMDA receptor [2]): 100%
- IC50 (NMDA receptor [2]; read-out: Spermine IC): 1100 ± 300 nM

Molecule: QELIREKSN [Glul0,14-Con-G(9-17)]
- % Sti (NMDA receptor [1]): 0%
- % Inh (NMDA receptor [2]): 0%

Molecule: CC[C@H](C)[C@H](NC(=O)[C@H](CC(C)C)NC(=O)[C@H](CC(C(=O)O)C(=O)O)NC(=O)[C@H](CCC(N)=O)NC(=O)[C@H](CC(N)=O)NC(=O)[C@H](CC(C(=O)O)C(=O)O)NC(=O)[C@H](CCC(N)=O)NC(=O)[C@H](CC(C)C)NC(=O)[C@H](CC(C(=O)O)C(=O)O)NC(=O)[C@H](CC(C(=O)O)C(=O)O)NC(=O)[C@H](CCC(=O)O)NC(=O)CN)C(=O)N[C@@H](CCCNC(=N)N)C(=O)N[C@@H](COP(=O)(O)O)C(=O)N[C@@H](CCCCN)C(=O)N[C@@H](CO)C(=O)N[C@@H](CC(N)=O)C(N)=O [Ser(p)14-Con-G, GEggLQgNQgLIRS(p)KSN]
- % Sti (NMDA receptor [1]; forebrain membranes): 0%
- % Inh (NMDA receptor [2]): 31 ± 0.5%
- inhibition of [3H]MK-801 binding produced by maximally effective spermine (NMDA receptor [2]): 31%
- IC50 (NMDA receptor [2]; [3]): 1120 ± 50 nM

Molecule: IAEASN [Ala13,15, Glul4-Con-G(12-17)]
- activity in [3H]MK-801 binding (spanning cell of Table II) (NMDA receptor [1]): inactive

Molecule: CC[C@H](C)[C@H](NC(=O)[C@H](CC(C)C)NC(=O)[C@H](C)NC(=O)[C@H](CC(C)C)NC(=O)[C@H](C)NC(=O)[C@H](C)NC(=O)[C@H](CCC(N)=O)NC(=O)[C@H](CC(C)C)NC(=O)[C@H](CC(C(=O)O)C(=O)O)NC(=O)[C@H](CC(C(=O)O)C(=O)O)NC(=O)[C@H](CCC(=O)O)NC(=O)CN)C(=O)N[C@@H](CCCNC(=N)N)C(=O)N[C@@H](C)C(=O)N[C@@H](CCCCN)C(=O)N[C@@H](CO)C(=O)N[C@@H](CC(N)=O)C(N)=O [alpha helix ConG, GEggLQAALALJRAKSN] (HELM PEPTIDE1{G.E.[O=C(O)C(C[C@H](N[*:1])C(=O)[*:2])C(=O)O].[O=C(O)C(C[C@H](N[*:1])C(=O)[*:2])C(=O)O].L.Q.A.A.L.A.L.I.R.A.K.S.N.[am]}$$$$V2.0)
- Emax (NMDA receptor [1]): 0%
- % Inh (NMDA receptor [2]): 100%
- IC50 (NMDA receptor [2]; read-out: Spermine IC): 1500 nM

Molecule: CC[C@H](C)[C@H](NC(=O)[C@H](CC(C)C)NC(=O)[C@H](CC(C(=O)O)C(=O)O)NC(=O)[C@H](CCC(N)=O)NC(=O)[C@H](CC(N)=O)NC(=O)[C@H](COP(=O)(O)O)NC(=O)[C@H](CCC(N)=O)NC(=O)[C@H](CC(C)C)NC(=O)[C@H](CC(C(=O)O)C(=O)O)NC(=O)[C@H](CC(C(=O)O)C(=O)O)NC(=O)[C@H](CCC(=O)O)NC(=O)CN)C(=O)N[C@@H](CCCNC(=N)N)C(=O)N[C@@H](CC(C(=O)O)C(=O)O)C(=O)N[C@@H](CCCCN)C(=O)N[C@@H](CO)C(=O)N[C@@H](CC(N)=O)C(N)=O [Ser(p)7-Con-G, GEggLQS(p)NQgLIRgKSN]
- % Sti (NMDA receptor [1]; forebrain membranes): 0%
- % Inh (NMDA receptor [2]): 50±3.8%
- inhibition of [3H]MK-801 binding produced by maximally effective spermine (NMDA receptor [2]): 50%
- IC50 (NMDA receptor [2]; [3]): 1040 ± 300 nM

Molecule: Y(p)-GEggLQgNQgLIRgKSN (YGEXXLQXNQXLIRXKSN; phosphotyrosine) [Tyr(p)^o-Con-G]
- % Sti (NMDA receptor [1]): 0%
- % Inh (NMDA receptor [2]): 0%

Molecule: CC[C@H](C)[C@H](NC(=O)[C@H](CC(C)C)NC(=O)[C@H](CC(C(=O)O)C(=O)O)NC(=O)[C@H](CCC(N)=O)NC(=O)[C@H](CC(N)=O)NC(=O)[C@H](CC(C(=O)O)C(=O)O)NC(=O)[C@H](CCC(N)=O)NC(=O)[C@H](CC(C)C)NC(=O)[C@H](CC(C(=O)O)C(=O)O)NC(=O)[C@H](CC(C(=O)O)C(=O)O)NC(=O)[C@H](CCC(=O)O)NC(=O)CNC(=O)[C@@H](N)CC(=O)N[C@@H]1O[C@H](CO)[C@@H](O)[C@H](O)[C@H]1NC(C)=O)C(=O)N[C@@H](CCCNC(=N)N)C(=O)N[C@@H](CC(C(=O)O)C(=O)O)C(=O)N[C@@H](CCCCN)C(=O)N[C@@H](CO)C(=O)N[C@@H](CC(N)=O)C(N)=O [Asn(GlcNAc)^o-Con-G, N(GlcOc)-GEggLQgNQgLIRgKSN]
- % Sti (NMDA receptor [1]; forebrain membranes): 0%
- % Inh (NMDA receptor [2]): 38%
- IC50 (NMDA receptor [2]; read-out: Spermine IC): 8800 nM

Molecule: CC[C@H](C)[C@H](NC(=O)[C@H](CCC(N)=O)NC(=O)[C@H](CO)NC(=O)[C@@H](NC(=O)[C@H](CC(N)=O)NC(=O)[C@H](CO)NC(=O)[C@H](CCC(N)=O)NC(=O)[C@H](CC(C)C)NC(=O)[C@H](CC(C(=O)O)C(=O)O)NC(=O)[C@H](CC(C(=O)O)C(=O)O)NC(=O)[C@H](CCC(=O)O)NC(=O)CN)C(C)C)C(=O)N[C@@H](CCCNC(=N)N)C(=O)N[C@@H](C)C(=O)N[C@@H](CCCCN)C(=O)N[C@@H](CO)C(=O)N[C@@H](CC(N)=O)C(N)=O [310 helix ConG] (HELM PEPTIDE1{G.E.[O=C(O)C(C[C@H](N[*:1])C(=O)[*:2])C(=O)O].[O=C(O)C(C[C@H](N[*:1])C(=O)[*:2])C(=O)O].L.Q.S.N.V.S.Q.I.R.A.K.S.N.[am]}$$$$V2.0)
- Emax (NMDA receptor [1]): 0%
- % Inh (NMDA receptor [2]): 25%
- IC50 (NMDA receptor [2]; read-out: Spermine IC): 20000 nM

Molecule: GEgSLQgNQgLJRgKSN [Ser4-Con-G]
- % Sti (NMDA receptor [1]): 0%
- % Inh (NMDA receptor [2]): 0%

Molecule: IREASN [Glu 14, Alal5-Con-G(12-17)]
- activity in [3H]MK-801 binding (spanning cell of Table II) (NMDA receptor [1]): inactive

Molecule: GEggL-cyclic (GEXXL; cyclic; gamma-carboxyglutamate residues) [Cyclic ConG(1-5)]
- activity in [3H]MK-801 binding (spanning cell of Table II) (NMDA receptor [1]): inactive

Molecule: GEggLQ-AAAAAAA-gKSN (GE[Gla′][Gla′]LQAAAAAAA[Gla′]KSN) [ConG(1-6)A7(14-17)]
- % Sti (NMDA receptor [1]): 0%

Molecule: IAEKSN [Ala13, Glul4-Con-G(12-17)]
- activity in [3H]MK-801 binding (spanning cell of Table II) (NMDA receptor [1]): inactive

Molecule: GEggL-GG-gKSN (GEXXLGGXKSN; gamma-carboxyglutamate residues) [ConG(1-5)GG(14-17)]
- % Sti (NMDA receptor [1]): 0%

Molecule: RgKSN (R[Gla′]KSN) [Con-G(13-17)]
- activity in [3H]MK-801 binding (spanning cell of Table II) (NMDA receptor [1]): inactive

Molecule: GEggL-GGGG-gKSN (GEXXLGGGGXKSN; gamma-carboxyglutamate residues) [ConG(1-5)GGGG(14-17)]
- % Sti (NMDA receptor [1]): 0%

Molecule: GEggL-AAA-gKSN (GEXXLAAAXKSN; gamma-carboxyglutamate residues) [ConG(1-5)AAAA(14-17)]
- % Sti (NMDA receptor [1]): 0%
